Laboratory results: patent US12097235B2, “Anti-acne pharmaceutical compositions” (priority 2018, dated 2024)
≈ marks a conversion by molar mass, not a printed value. One block for each compound: values may come before it.

Tests used:
[1] = test system: COX-2 protein levels in HT-29 cells; conditions: at 3.6 μg/ml; cited from earlier work
[2] = DPPH radical scavenging assay; type: biochemical
Procedure: The antioxidant activities of Plectranthus […] ethanolic extract was investigated using 1,1-Diphenyl-2-picrylhydrazyl (DPPH) free radical scavenging assay as described by Mavundza (Mavundza, 2010). To the top wells of a 96-well ELISA plate 200 μl of distilled water was added and to the remaining wells 110 μl of distilled water as a medium. Twenty microliters of plant extract and the controls was added to the first top wells that followed a double dilution. To each of the wells 90 μl of 90 μM DPPH ethanolic solution was added and left to incubate covered with aluminium foil for 30 minutes at room temperature. The final concentrations for the Plectranthus […] ethanolic extracts ranged from 3.9 to 500 μg/ml (Mavundza, 2010). […] The radical scavenging capacities of the extracts were determined by using a BIO-TEK Power Wave Multiwell plate reader ([…], South Africa) at 515 nm using KC Junior software (Highland Park, Winooski, Vermont, USA) to measure the disappearance of DPPH at 515 nm. The radical scavenging activity was determined as a percentage DPPH radical-scavenging that was calculated by the following equation, where AC is the absorbance of the control solution that only contains DPPH and AS is the absorbance of the plant sample in DPPH solution: % DPPH radical-scavenging=(AC-AS)/AC×100 […]

[3] = NO antioxidant (nitric oxide scavenging) assay; type: biochemical
MMP-9 enzyme = biological target: T1, MMP-9 enzyme (Homo sapiens, UniProt P14780); assay: Matrix metalloproteinase-9 assay (colorimetric kit); type: biochemical; conditions: at 0.411 μg/ml, single concentration
T1 construct: purchased Enzo Life Sciences BML-AK410
Procedure: The MMP-9 Colorimetric Drug Discovery Kit (BML-AK410) from Enzo Life Sciences was used. The experiment was carried out as described in the instruction manual. The MMP chromogenic substrate (Ac-PLG-[2-mercapto-4-methyl-pentanoyl]-LG-OC2H5) and the inhibitor N-Isobutyl-N-(4-methoxyphenylsulfonyl)glycyl hydroxamic acid (NNGH) was thawed to room temperature. The inhibitor was diluted 1/200 in assay buffer (50 mM HEPES, 10 mM CaCl2, 0.05% Brij-35, 1 mM DTNB, pH 7.5) and warmed until 37° C. The substrate was diluted 1/25 in assay buffer to the required volume. The MMP-9 enzyme was diluted in assay buffer to 1/60 and warmed until 37° C. just before the assay. The plant extract was dissolved in dimethyl sulfoxide (DMSO) to a starting concentration of 2 mg/ml.
In the plant extract wells, 50 μl of plant extract and 90 μl of buffer was added to the first well of the 96 well plate (½ volume). To the rest of the plant extract wells, 70 μl of buffer was added and the plant extracts serially diluted. Assay buffer was plated in the rest of the relevant wells as follows: blank 90 μl, control 70 μl, and NNGH 50 μl. […] The plates were continuously read at A412nm by using a BIO-TEK Power Wave Multiwell plate reader (A.D.P., Weltevreden Park, South Africa) at one (1) minute intervals for twenty (20) minutes using KC Junior software (Highland Park, Winooski, Vermont, USA).

[4] = test system: Cutibacterium acnes (ATCC 6919); assay: Antibacterial assay (MIC, broth microdilution, Presto Blue); type: cell-based; conditions: ATCC6919, C. acnes ATCC 6919, 72 hours, anaerobic, read-out: minimum inhibitory concentration (MIC)
Procedure: The ethanolic extract of Plectranthus […] tested against Cutibacterium acnes (ATCC 6919). The C. acnes bacteria was cultured from a Kwik-Stick on mouse heart and brain agar and then incubated at 37° C. for 72 hours under anaerobic conditions before the assay was done. The 72 hour old bacterial culture was dissolved in brain heart infusion broth and the suspension was adjusted to a 0.5 McFarland standard turbidity. This led to 10^5-10^6 colony forming units (CFU)/ml. In a sterile 96-well plate, 100 μl of the samples from the stock solution that consisted of the plant extracts (2 mg/ml dissolved in 10% dimethyl sulphoxide (DMSO)) and tetracycline the positive control (0.2 mg/ml) was diluted with broth. Twofold serial dilutions were done in broth over a range to give the concentrations 500-3.9 μg/ml for the plant extract and 50-0.3 μg/ml for tetracycline. To all the wells of the 96-well plate, 100 μl of bacterial suspension was added. The solvent control wells contained 2.5% DMSO with bacterial suspension and no plant samples and the negative control, bacterial suspension with no plant samples. The plates were incubated at 37° C. for 72 hours under anaerobic conditions.

T1 sequence (P14780 107-444 limits assumed): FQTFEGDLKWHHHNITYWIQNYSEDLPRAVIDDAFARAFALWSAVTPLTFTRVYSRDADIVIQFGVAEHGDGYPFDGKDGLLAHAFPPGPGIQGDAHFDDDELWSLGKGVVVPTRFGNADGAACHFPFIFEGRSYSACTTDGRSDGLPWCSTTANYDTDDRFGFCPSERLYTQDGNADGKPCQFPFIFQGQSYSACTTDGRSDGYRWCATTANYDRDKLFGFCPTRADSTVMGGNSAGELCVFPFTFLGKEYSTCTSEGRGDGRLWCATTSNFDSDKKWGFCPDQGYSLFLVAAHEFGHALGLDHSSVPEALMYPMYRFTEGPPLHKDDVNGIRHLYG

SMILES: O=C(/C=C/c1ccc(O)c(O)c1)O[C@H](Cc1ccc(O)c(O)c1)C(=O)O [rosmarinic acid]
effect on COX-2 protein levels [1]: reduced COX-2 protein levels in HT-29 cells to levels comparable to that of the control cells

DPPH antioxidant activity IC50 [2]: 9.0 ± 2.0 µg/mL
nitric oxide (NO) antioxidant activity IC50 [3]: 65.8 ± 5.9 µg/mL
SMILES: O=C1O[C@H]([C@@H](O)CO)C(O)=C1O [vitamin C, L-ascorbic acid]

SMILES: COc1ccc(S(=O)(=O)N(CC(=O)NO)CC(C)C)cc1 [positive control, N-Isobutyl-N-(4-methoxyphenylsulfonyl)glycyl hydroxamic acid]
MMP-9 inhibition (MMP-9 enzyme): 96%

SMILES: CN(C)[C@@H]1C(O)=C(C(N)=O)C(=O)[C@@]2(O)C(O)=C3C(=O)c4c(O)cccc4[C@@](C)(O)[C@H]3C[C@@H]12 [tetracycline]
MIC [4]: 0.78 µg/mL (≈ 1.76 µM)

MIC [4]: 62.5 µg/mL (≈ 218 µM)
SMILES: O=c1cc(-c2ccc(O)c(O)c2)oc2cc(O)cc(O)c12 [Luteolin]
